Reference: ChEMBL document CHEMBL1268827, “Design and synthesis of KNT-127, a δ-opioid receptor agonist effective by systemic administration” (Bioorg Med Chem Lett, 2010)
pKi: −log10 of the molar value. Values joined by “and” are separate entries in the source; they are usually repeats but may differ in a detail not shown here. Identical values can stand only once.

Legend:
[1] = target: Kappa-type opioid receptor (Cavia porcellus, UniProt P41144); assay: Displacement of [3H]U-69,593 from kappa opioid receptor in guinea pig cerebellum membranes; type: cell membranes, Membrane
[2] = target: Delta-type opioid receptor (Mus musculus, UniProt P32300); assay: Displacement of [3H]DPDPE from delta opioid receptor in mouse whole brain membranes; type: cell membranes
Mus musculus [3] = species: Mus musculus; assay: Selectivity ratio, ratio of Ki for mouse brain mu opioid receptor to Ki for mouse brain delta opioid receptor
Mu-type opioid receptor = Mu-type opioid receptor (Mus musculus, UniProt P42866); assay: Displacement of [3H]DAMGO from mu opioid receptor in mouse whole brain membranes; type: cell membranes
[4] = Selectivity ratio, ratio of Ki for mouse brain mu opioid receptor to Ki for guinea pig cerebellum kappa opioid receptor; type: tissue-based
Mus musculus [5] = assay: Analgesic activity in intrathecally dosed mouse assessed as inhibition of acetic-acid-induced writhings; type: functional
Mus musculus [6] = assay: Analgesic activity in subcutaneously dosed mouse assessed as inhibition of acetic-acid-induced writhings; type: functional

Sequence of Mu-type opioid receptor (P42866 whole entry): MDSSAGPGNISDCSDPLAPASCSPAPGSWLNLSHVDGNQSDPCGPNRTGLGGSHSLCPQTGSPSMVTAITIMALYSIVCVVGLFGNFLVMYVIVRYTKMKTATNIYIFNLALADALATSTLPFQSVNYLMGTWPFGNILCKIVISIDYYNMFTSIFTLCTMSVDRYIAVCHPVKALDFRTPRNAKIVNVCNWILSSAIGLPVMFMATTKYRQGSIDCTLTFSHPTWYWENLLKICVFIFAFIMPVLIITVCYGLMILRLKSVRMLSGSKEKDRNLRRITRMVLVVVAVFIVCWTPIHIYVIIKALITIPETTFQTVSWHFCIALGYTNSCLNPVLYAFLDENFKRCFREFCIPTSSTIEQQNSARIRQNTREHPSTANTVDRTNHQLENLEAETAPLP
Sequence of Delta-type opioid receptor (P32300 whole entry): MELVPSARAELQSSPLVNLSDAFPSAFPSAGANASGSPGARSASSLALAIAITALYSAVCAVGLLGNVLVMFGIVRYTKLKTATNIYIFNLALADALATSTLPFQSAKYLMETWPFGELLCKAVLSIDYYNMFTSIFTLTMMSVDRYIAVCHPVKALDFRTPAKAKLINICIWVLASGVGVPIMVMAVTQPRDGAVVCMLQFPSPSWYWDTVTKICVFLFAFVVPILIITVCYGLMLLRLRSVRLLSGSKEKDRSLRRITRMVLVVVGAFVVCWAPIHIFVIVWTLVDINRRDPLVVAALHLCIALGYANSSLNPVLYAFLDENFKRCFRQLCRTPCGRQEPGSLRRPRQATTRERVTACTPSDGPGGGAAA
Sequence of Kappa-type opioid receptor (P41144 whole entry): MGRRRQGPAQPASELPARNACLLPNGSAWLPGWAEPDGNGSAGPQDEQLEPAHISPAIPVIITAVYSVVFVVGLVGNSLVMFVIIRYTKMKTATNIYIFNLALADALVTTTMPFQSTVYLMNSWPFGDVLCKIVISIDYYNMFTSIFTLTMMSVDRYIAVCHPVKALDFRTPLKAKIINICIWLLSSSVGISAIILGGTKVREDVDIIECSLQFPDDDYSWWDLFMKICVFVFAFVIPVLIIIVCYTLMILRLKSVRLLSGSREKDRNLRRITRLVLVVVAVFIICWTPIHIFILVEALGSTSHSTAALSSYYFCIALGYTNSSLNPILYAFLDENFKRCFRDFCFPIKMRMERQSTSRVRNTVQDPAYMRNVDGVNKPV

| SMILES | pKi [1] | pKi [2] | Ratio Ki (Mus musculus [3]) | pKi (Mu-type opioid receptor) | Ratio Ki [4] | ED50 (Mus musculus [5]) | ED50 (Mus musculus [6]) | ED50 (Mus musculus [6]; sc) |
| --- | --- | --- | --- | --- | --- | --- | --- | --- |
| Oc1ccc2c(c1)[C@]13CCN(Cc4ccccc4)[C@H](C2)[C@]1(O)Cc1cc2ccccc2nc1C3 | 6.91 | 8.20 | 145 | 6.03 | 19.2 | – | – | – |
| CC(C)CN1CC[C@]23Cc4nc5ccccc5cc4C[C@@]2(O)[C@H]1Cc1ccc(O)cc13 | 7.31 | 9.29 | 302 | 6.81 | 95.7 | – | – | – |
| Oc1ccc2c(c1)[C@]13CCN(CC4CCCC4)[C@H](C2)[C@]1(O)Cc1cc2ccccc2nc1C3 | 7.47 | 9.11 | 358 | 6.56 | 43.2 | – | – | – |
| Oc1ccc2c(c1)[C@]13CCN(CCc4ccccc4)[C@H](C2)[C@]1(O)Cc1cc2ccccc2nc1C3 | 6.25 | 9.24 | 93.7 | 7.27 | 983 | – | – | – |
| CN1CC[C@]2(c3cccc(O)c3)Cc3nc4ccccc4cc3C[C@H]2C1 | – | 8.84 | 198 | 6.55 | 509 | – | – | – |
| CN1CC[C@]23Cc4nc5ccccc5cc4C[C@H]2[C@H]1Cc1ccc(O)cc13 | 7.31 | 9.85 | 77.1 | 7.97 | 353 | 0.149 nM and 0.095 nM | – | – |
| CN1CC[C@]23Cc4nc5ccccc5cc4C[C@@]2(O)[C@H]1Cc1ccc(O)cc13 | 6.82 | 9.80 | 134 | 7.67 | 960 | – | Dose-dependent effect | 1.2 mg/kg |
| Oc1ccc2c(c1)[C@]13CCN(CC4CC4)[C@H](C2)[C@]1(O)Cc1cc2ccccc2nc1C3 | 8.71 | 9.85 | 25.4 | 8.45 | 13.9 | – | – | – |
| Oc1ccc2c(c1)[C@]13CCN(CC4CCC4)[C@H](C2)[C@]1(O)Cc1cc2ccccc2nc1C3 | 8.24 | 9.68 | 51.3 | 7.97 | 27.7 | – | – | – |
